PubChem BioAssay (NCI)
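GI50 = concentration required for 50% inhibition of growth. At the TGI there is no net growth.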

Columns and labels:
Experiment in all cases: NCI tumour cell line growth inhibition, 384-well format
[1] = tested on: 786-0 renal
[2] = tested on: A498 renal
[3] = tested on: A549 NSCLC
[4] = tested on: ACHN renal
[5] = tested on: BT-549 breast
[6] = tested on: CAKI-1 renal
[7] = tested on: CCRF-CEM leukemia
[8] = tested on: COLO 205 colon
[9] = tested on: DU-145 prostate
[10] = tested on: HCC-2998 colon
[11] = tested on: HCT-116 colon
[12] = tested on: HCT-15 colon
[13] = tested on: HL-60(TB) leukemia
[14] = tested on: HOP-62 NSCLC
[15] = tested on: HOP-92 NSCLC
[16] = tested on: HT29 colon
[17] = tested on: IGROV1 ovarian
[18] = tested on: K-562 leukemia
[19] = tested on: KM12 colon
[20] = tested on: LOX IMVI melanoma
[21] = tested on: M14 melanoma
[22] = tested on: MALME-3M melanoma
[23] = tested on: MCF7 breast
[24] = tested on: MDA-MB-231 breast
[25] = tested on: MDA-MB-435 melanoma
[26] = tested on: MDA-MB-468 breast
[27] = tested on: MOLT-4 leukemia
[28] = tested on: NCI-H226 lung
[29] = tested on: NCI-H23 lung
[30] = tested on: NCI-H322M lung
[31] = tested on: NCI-H460 NSCLC
[32] = tested on: NCI-H522 lung
[33] = tested on: NCI/ADR-RES ovarian
[34] = tested on: OVCAR-3 ovarian
[35] = tested on: OVCAR-4 ovarian
[36] = tested on: OVCAR-5 ovarian
[37] = tested on: OVCAR-8 ovarian
[38] = tested on: PC-3 prostate
[39] = tested on: RPMI-8226 leukemia
[40] = tested on: RXF 393 renal
[41] = tested on: SF-268 CNS
[42] = tested on: SF-295 CNS
[43] = tested on: SF-539 CNS
[44] = tested on: SK-MEL-2 melanoma
[45] = tested on: SK-MEL-28 melanoma
[46] = tested on: SK-MEL-5 melanoma
[47] = tested on: SK-OV-3 ovarian
[48] = tested on: SN12C renal
[49] = tested on: SNB-19 CNS
[50] = tested on: SR leukemia
[51] = tested on: SW-620 colon
[52] = tested on: T-47D breast
[53] = tested on: TK-10 renal
[54] = tested on: U251 glioblastoma
[55] = tested on: UACC-257 melanoma
[56] = tested on: UACC-62 melanoma
[57] = tested on: UO-31 renal

SMILES: C=CC(=O)N1C[C@@H]2CCOc3c(Cl)c(-c4c(O)cccc4F)c(F)c4ncnc(c34)N2C[C@H]1C
- GI50 [1]: 1730 nM
- TGI [1]: 3910 nM
- GI50 [2]: 2270 nM
- TGI [2]: 8260 nM
- GI50 [3]: 2240 nM
- TGI [3]: 6750 nM
- GI50 [4]: 2580 nM
- TGI [4]: 7930 nM
- GI50 [5]: 1260 nM
- TGI [5]: 2970 nM
- GI50 [6]: 1560 nM
- TGI [6]: 6430 nM
- GI50 [7]: 1600 nM
- TGI [7]: 3050 nM
- GI50 [8]: 2010 nM
- TGI [8]: 4520 nM
- GI50 [9]: 1950 nM
- TGI [9]: 5120 nM
- GI50 [10]: 1570 nM
- TGI [10]: 3150 nM
- GI50 [11]: 2200 nM
- TGI [11]: 5950 nM
- GI50 [12]: 2630 nM
- TGI [12]: 10600 nM
- GI50 [13]: 1290 nM
- TGI [13]: 2620 nM
- GI50 [14]: 30.9 nM
- TGI [14]: 4750 nM
- GI50 [15]: 2950 nM
- TGI [15]: 9360 nM
- GI50 [16]: 2540 nM
- TGI [16]: 6840 nM
- GI50 [17]: 1700 nM
- TGI [17]: 4640 nM
- GI50 [18]: 1740 nM
- TGI [18]: 3680 nM
- GI50 [19]: 1880 nM
- TGI [19]: 4270 nM
- GI50 [20]: 4180 nM
- TGI [20]: 11400 nM
- GI50 [21]: 2620 nM
- TGI [21]: 10100 nM
- GI50 [22]: 1930 nM
- TGI [22]: 7880 nM
- GI50 [23]: 3100 nM
- TGI [23]: 11600 nM
- GI50 [24]: 2610 nM
- TGI [24]: 8920 nM
- GI50 [25]: 1910 nM
- TGI [25]: 3960 nM
- GI50 [26]: 1680 nM
- TGI [26]: 3620 nM
- GI50 [27]: 1160 nM
- TGI [27]: 2400 nM
- GI50 [28]: 2150 nM
- TGI [28]: 5780 nM
- TGI [29]: 22.7 nM
- GI50 [30]: 6660 nM
- TGI [30]: 19400 nM
- GI50 [31]: 2340 nM
- TGI [31]: 5340 nM
- GI50 [32]: 1630 nM
- TGI [32]: 3540 nM
- GI50 [33]: 1760 nM
- TGI [33]: 3530 nM
- GI50 [34]: 1550 nM
- TGI [34]: 3040 nM
- GI50 [35]: 1960 nM
- TGI [35]: 4750 nM
- GI50 [36]: 4710 nM
- TGI [36]: 17000 nM
- GI50 [37]: 1640 nM
- TGI [37]: 3060 nM
- GI50 [38]: 3040 nM
- TGI [38]: 10600 nM
- GI50 [39]: 232 nM
- TGI [39]: 1280 nM
- GI50 [40]: 60.1 nM
- TGI [40]: 407 nM
- GI50 [41]: 2100 nM
- TGI [41]: 4860 nM
- GI50 [42]: 7480 nM
- TGI [42]: 20300 nM
- GI50 [43]: 1800 nM
- TGI [43]: 3450 nM
- GI50 [44]: 1220 nM
- TGI [44]: 2630 nM
- GI50 [45]: 2360 nM
- TGI [45]: 8430 nM
- GI50 [46]: 1620 nM
- TGI [46]: 3410 nM
- GI50 [47]: 2190 nM
- TGI [47]: 8030 nM
- GI50 [48]: 1960 nM
- TGI [48]: 4230 nM
- GI50 [49]: 3760 nM
- TGI [49]: 16000 nM
- GI50 [50]: 1070 nM
- TGI [50]: 2280 nM
- GI50 [51]: 2270 nM
- TGI [51]: 4070 nM
- GI50 [52]: 1890 nM
- TGI [52]: 5470 nM
- GI50 [53]: 2400 nM
- TGI [53]: 10700 nM
- GI50 [54]: 2430 nM
- TGI [54]: 7660 nM
- GI50 [55]: 1290 nM
- TGI [55]: 6420 nM
- GI50 [56]: 1410 nM
- TGI [56]: 5500 nM
- GI50 [57]: 1920 nM
- TGI [57]: 9160 nM
